Laboratory results taken from the supplement of paper PMC8183993.
Structures can show the parent of a compound that is named as a salt.

How the values were obtained:
Conditions in all cases: 24 h
U2OS [1] = experiment: nuclei count in OPP assay relative to DMSO (% of DMSO); higher = more viable cells
Method: (§1)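 Validation screen in U2OS cells: hits tested at 1, 3 and 10 uM for 24 h in duplicate plates. Translation was read by OPP incorporation (1 h pulse) and HPG incorporation (30 min in methionine-free medium), quantified by high-throughput microscopy alongside nuclei counts. All values are normalised to DMSO (= 100).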

U2OS [2] = experiment: nuclei count in HPG assay relative to DMSO (% of DMSO); higher = more viable cells
Method: as §1

U2OS [3] = experiment: mean OPP incorporation (global translation) relative to DMSO (% of DMSO); higher = more protein synthesis
Method: as §1

U2OS [4] = experiment: mean HPG incorporation (global translation) relative to DMSO (% of DMSO); higher = more protein synthesis
Method: as §1

| SMILES | nuclei count in OPP assay (U2OS [1]; 1 µM) | nuclei count in OPP assay (U2OS [1]; 3 µM) | nuclei count in OPP assay (U2OS [1]; 10 µM) | nuclei count in HPG assay (U2OS [2]; 1 µM) | nuclei count in HPG assay (U2OS [2]; 3 µM) | nuclei count in HPG assay (U2OS [2]; 10 µM) | mean OPP incorporation (U2OS [3]; 1 µM) | mean OPP incorporation (U2OS [3]; 3 µM) | mean OPP incorporation (U2OS [3]; 10 µM) | mean HPG incorporation (U2OS [4]; 1 µM) | mean HPG incorporation (U2OS [4]; 3 µM) | mean HPG incorporation (U2OS [4]; 10 µM) |
| --- | --- | --- | --- | --- | --- | --- | --- | --- | --- | --- | --- | --- |
| CC(C)(C)c1nc(-c2cccc(NS(=O)(=O)c3c(F)cccc3F)c2F)c(-c2ccnc(N)n2)s1 | 101 | 102 | 104 | 96.6 | 100 | 104 | 102 | 97.2 | 114 | 50.8 | 48 | 106 |
| CCn1c(-c2nonc2N)nc2cnc(Oc3cccc(NC(=O)c4ccc(OCCN5CCOCC5)cc4)c3)cc21 | 102 | 101 | 82.6 | 99 | 96.3 | 76.4 | 97.1 | 97.5 | 97.5 | 73.1 | 71.8 | 76.4 |
| COc1cc(COc2cc(N)c(Cl)cc2C(=O)CCC2CCN(CCNS(C)(=O)=O)CC2)cc(OC)c1 | 95.1 | 97.5 | 79.8 | 100 | 106 | 90.1 | 121 | 122 | 120 | 82.2 | 83.4 | 58.1 |
| COc1cc(NC(=O)c2ccccn2)ccc1Cl | 105 | 91 | 88.2 | 103 | 95 | 96.2 | 83.8 | 79.6 | 70.9 | 106 | 113 | 116 |
| COc1cc2c(cc1C(F)(F)F)N(C(=O)Nc1cc(F)cc(-c3cccnc3)c1)CC2 | 96.9 | 93.9 | 88.4 | 95.9 | 95 | 89 | 102 | 112 | 117 | 95.1 | 98.3 | 74.3 |
| C[C@@H]1CN(CC(=O)Nc2ccc3c(c2)Cc2cccc(-c4cc(=O)cc(N5CCOCC5)o4)c2S3)C[C@H](C)O1 | 96.9 | 88 | 92.3 | 98.7 | 89.5 | 81.6 | 103 | 108 | 102 | 70.2 | 64.9 | 55 |
| Cc1c(C)c2c(c(C)c1O)CC[C@](C)(CN1CCN(c3cc(N4CCCC4)nc(N4CCCC4)n3)CC1)O2 | 95.4 | 101 | 102 | 94.9 | 102 | 98 | 98.2 | 97.2 | 111 | 90.2 | 93.4 | 87.1 |
| O=c1cc(N2CCOCC2)oc2c(-c3cccc4c3sc3ccccc34)cccc12 | 97.4 | 87.4 | 89.1 | 96.8 | 89.5 | 79.6 | 92.6 | 107 | 104 | 66.7 | 74.8 | 61.8 |
| COc1ccccc1N1CCN(CCN2C(=O)c3ccccc3C(C)(C)C2=O)CC1 [ARC 239 dihydrochloride] | 98.8 | 101 | 100 | 106 | 101 | 98.3 | 100 | 117 | 120 | 102 | 116 | 122 |
